{
  "source": "patent US20060040992A1",
  "about": "“Antiinflammatory 3-arylthio-3-thiazolyl-alkylamines” (AstraZeneca AB, priority 2002, published 2006)",
  "molecular_target": "T1, nitric oxide synthase (Mus musculus, UniProt P29477)",
  "T1 construct": "The reaction is started by adding 50 μl of cell lysate (prepared as above); endogenous in cells; host or cells: J774A-1 murine macrophage cell line, induced with LPS and IFN-gamma; crude cell lysate",
  "test": "Screen 1: nitric oxide synthase inhibition, 3H-L-arginine to 3H-L-citrulline conversion, lysate of induced J774A-1 cells",
  "format": "biochemical",
  "conditions": "enzyme from IFNg/LPS-induced murine macrophage J774A-1 cell lysate; 1 hour at room temperature; read-out: IC50 (concentration of drug substance which gives 50% enzyme inhibition in the assay)",
  "experimental": "The activity of compounds of formula (I), or a pharmaceutically acceptable salt thereof, may be screened for nitric oxide synthase inhibiting activity by a procedure based on that of Förstermann et al., Eur. J. Pharm., 1992, 225, 161-165. Nitric oxide synthase converts ^3H-L-arginine into ^3H-L-citrulline which can be separated by cation exchange chromatography and quantified by liquid scintillation counting.\nEnzyme is prepared, after induction, from the cultured murine macrophage cell line J774A-1 (obtained from the laboratories of the Imperial Cancer Research Fund). J774A-1 cells are cultured in Dulbeccos Modified Eagles Medium (DMM) supplemented with 10% foetal bovine serum, 4 mM L-glutamine and antibiotics (100 units/ml penicillin G, […] & […] amphotericin B). Cells are routinely grown in […] flasks is containing 35 ml medium kept at 37° C. and in a humidified atmosphere containing 5% CO2. […]\nLabelled L-citrulline is separated from labelled L-arginine using Dowex AG-50W. […] After allowing the samples to dry the L-citruulline is quantified by scintillation counting.\nIn a typical experiment basal activity is 300 dpm per 75 μl sample which is increased to 1900 dpm in the reagent controls. […] Compounds are tested at a range of concentrations and from the inhibitions obtained IC50 values are calculated. […]",
  "data": [
    {"smiles": "N=C(N)NN", "note": "[arninoguanidine]", "values": [
      {"measurement": "IC50", "value": 10, "unit": "µM"}
    ]}
  ]
}
